Literature values, collected in PMC6640857 (Tetrahedron, 2019).

Conditions: relative to vancomycin; cited from earlier work

For “chlorobiphenylmethyl (CBP-)vancomycin [compound 2]”, the “enhancement of antimicrobial potency by the CBP modification” value is listed as no more than 100 fold.
